# Target: PRMT5-MTA (Homo sapiens, UniProt O14744)
# Experiment: Enzymatic inhibitory activity against PRMT5-MTA (AlphaScreen)
# Type: biochemical
# Conditions: read-out: IC50
# Protocol: The AlphaScreen method was used to detect the enzymatic inhibitory activity of the compounds against PRMT5-MTA. 1 x Methyltransferase assay buffer IV (signalchem) was prepared as a solution for diluting each component for the enzymatic reaction. PRMT5/[…] protein of a final concentration of 1 nM, […] (sigma) of a final concentration of 1 uM and S-(5'-adenosine)-L-methionine chloride dihydrochloride (sigma) of a final concentration of 2.5 uM were mixed, then incubated for 30 minutes at room temperature, and transferred to an OptiPlate-384 well plate (PerkinElmer) at a volume of 6 uL per well, for which no PRMT5/[…] protein was added to the control wells. The test compound was 3-fold serially diluted into 10 concentrations, starting from a concentration of 1000 nM, and the series of diluted compounds were added to all wells except the control wells in the well plate using Tecan D300e. The well plate was subjected to centrifugation for 1 minute at 1000 rpm in a centrifuge, and then incubated for 15 minutes at 23°C. Histone H4 substrate of a final concentration of 5 nM was added to the well plate at 4 uL per well, centrifuged for 1 minute at 1000 rpm in a centrifuge, then placed in an incubator at 23°C and reacted for 45 minutes. Anti-histone H4 (symmetrical dimethyl R3) antibody (Abcam) was incubated with 50 ug/mL of AlphaScreen Protein A Acceptor beads (PerkinElmer) for 10 minutes at room temperature beforehand, and then added to the well plate at a volume of 10 uL per well. The mixture was reacted for 1 hour at room temperature. 50 Ug/mL of AlphaScreen Streptavidin Donor beads (PerkinElmer) was added at 10 uL per well, and reacted for 1 hour at room temperature. The signal values were detected for the well plate through the Alpha method using an Envision multifunctional microplate-reader, and the IC50 values for inhibition of the compounds on PRMT5/MET50 enzyme activity were calculated in Xlfit 5.0 software. Table 1. IC50 values for inhibition of the compounds on PRMT5+MTA enzyme activity
# Sequence of PRMT5-MTA (O14744 whole entry): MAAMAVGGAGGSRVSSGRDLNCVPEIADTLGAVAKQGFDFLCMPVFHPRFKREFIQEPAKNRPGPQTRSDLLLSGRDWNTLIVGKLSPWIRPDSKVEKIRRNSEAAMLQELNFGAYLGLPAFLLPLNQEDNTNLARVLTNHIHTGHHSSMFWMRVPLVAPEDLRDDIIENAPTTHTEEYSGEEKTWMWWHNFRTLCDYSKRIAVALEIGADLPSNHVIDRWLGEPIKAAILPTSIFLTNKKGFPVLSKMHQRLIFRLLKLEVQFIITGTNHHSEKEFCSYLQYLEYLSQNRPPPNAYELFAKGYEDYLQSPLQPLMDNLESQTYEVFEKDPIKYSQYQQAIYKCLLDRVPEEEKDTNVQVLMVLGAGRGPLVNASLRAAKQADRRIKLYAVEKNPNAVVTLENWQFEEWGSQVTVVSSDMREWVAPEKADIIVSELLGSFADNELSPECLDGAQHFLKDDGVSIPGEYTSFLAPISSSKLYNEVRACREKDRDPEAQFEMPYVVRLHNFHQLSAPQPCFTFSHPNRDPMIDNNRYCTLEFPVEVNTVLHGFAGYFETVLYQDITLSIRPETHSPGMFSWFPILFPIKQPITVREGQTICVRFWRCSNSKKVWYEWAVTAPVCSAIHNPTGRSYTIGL
# Sequence of PRMT5-MTA (Q9BQA1 whole entry partner): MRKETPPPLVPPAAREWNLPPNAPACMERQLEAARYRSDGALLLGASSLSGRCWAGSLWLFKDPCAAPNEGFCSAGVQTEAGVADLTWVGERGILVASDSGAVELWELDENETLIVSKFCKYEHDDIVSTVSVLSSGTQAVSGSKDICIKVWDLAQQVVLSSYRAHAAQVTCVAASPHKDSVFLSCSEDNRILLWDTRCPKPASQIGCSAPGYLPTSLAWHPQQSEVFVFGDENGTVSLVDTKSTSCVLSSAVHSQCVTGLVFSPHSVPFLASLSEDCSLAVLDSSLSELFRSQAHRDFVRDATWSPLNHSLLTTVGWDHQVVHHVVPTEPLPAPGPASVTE
row,SMILES,IC50 [nM]
1,"Cc1cc2cc(C(=O)N(Cc3ccccn3)N(C)c3ncccn3)ccc2nc1N [Example 9, 2-amino-N',3-dimethyl-N-(pyridin-2-ylmethyl)-N'-(pyrimidin-2-yl)quinoline-6-carbohydrazide]",3.2
2,"COCc1cc2cc(C(=O)N(Cc3ccc(C(F)(F)F)cn3)N(C)c3ncccn3)ccc2nc1N [Example 326, 2-amino-3-(methoxymethyl)-N'-methyl-N'-(pyrimidin-2-yl)-N-((5-(trifluoromethyl)pyridin-2-yl)methyl)quinoline-6-carbohydrazide]",2
3,"Cc1cc2nc(N)c3cnn(C)c3c2cc1C(=O)N1CC(c2ccccc2)CN1c1ncccc1F (stereo not shown) [Example 409, (4-amino-1,7-dimethyl-1H-pyrazolo[4,3-c]quinolin-8-yl)(2-(3-fluoropyridin-2-yl)-4-phenylpyrazolidin-1-yl)methanone]",3.1
4,"Cc1cc2cc(C(=O)N(Cc3ccc(C(F)(F)F)cn3)n3c(=O)n(C)c4cccnc43)ccc2nc1N [Example 118, 2-amino-3-methyl-N-(1-methyl-2-oxo-1,2-dihydro-3H-imidazo[4,5-b]pyridin-3-yl)-N-((5-(trifluoromethyl)pyridin-2-yl)methyl)quinoline-6-carboxamide]",2.3
5,"CC(C)c1cc2nc(N)c3cnn(C)c3c2cc1C(=O)N1CCCN1c1ccc(C(F)(F)F)cn1 [Example 500, (4-amino-7-isopropyl-1-methyl-1H-pyraz olo[4,3-c]quinolin-8-yl)(2-(5-(trifluoromethyl)pyridin-2-yl)pyrazolidin-1-yl)metha none]",41
6,"CN(c1ncccn1)N(Cc1ccc(C(F)(F)F)cn1)C(=O)c1ccc2nc(N)c(C(F)(F)F)cc2c1 [Example 327, 2-amino-N'-methyl-N'-(pyrimidin-2-yl)-3-(trifluoromethyl)-N-((5-(trifluoromethyl)pyridin-2-yl)methyl)quinoline-6-carbohydrazide]",8.4
7,"Cc1cc2cc(C(=O)N(Cc3ccc(-c4cnn(C(F)(F)F)c4)cn3)Nc3ncccn3)ccc2nc1N [Example 249, 2-amino-3-methyl-N'-(pyrimidin-2-yl)-N-((5-(1-(trifluoromethyl)-1H-pyrazol-4-yl)pyridin-2-yl)methyl)quinoline-6-carbohy drazide]",40
8,"Cc1cc2cc(C(=O)N(Cc3ccc(C(F)(F)F)cn3)n3cnc4cccnc43)ccc2nc1N [Example 27, 2-amino-N-(3H-imidazo[4,5-b]pyridin-3-yl)-3-methyl-N-((5-(trifluoromethyl)pyridin-2-yl)methyl)quinoline-6-carboxamide]",4
9,"Nc1nc2ccc(C(=O)N(Cc3ccc(C(F)(F)F)cn3)N(c3ncccn3)C3CC3)cc2cc1CF [Example 323, 2-amino-N'-cyclopropyl-3-(fluoromethyl)-N'-(pyrimidin-2-yl)-N-((5-(trifluoromethyl)pyridin-2-yl)methyl)quinoline-6-carbohydrazide]",7.1
10,"CC1CN(C(=O)c2cc3c4c(c(N)nc3cn2)COC4)N(c2ncccc2F)C1 (stereo not shown) [Example 511, (4-amino-1,3-dihydrofuro[3,4-c][1,7]naphthyridin-8-yl)(2-(3-fluoropyridin-2-yl)-4-methylpyrazolidin-1-yl)methanone]",6.1
11,"Cc1cc2nc(N)c3cnccc3c2cc1C(=O)N1CC(C)CN1c1ncccc1F (stereo not shown) [Example 506, (5-amino-8-methylbenzo[C] [2,7]naphthyridin-9-yl)(2-(3-fluoropyridin-2-yl)-4-methylpyrazolidin-1-yl)methanone]",5.8
12,"CN(c1ncccn1)N(Cc1ccc(C(F)(F)F)cn1)C(=O)c1ccc2nc(N)c3c(c2c1)COC3 [Example 12, 4-amino-N'-methyl-N'-(pyrimidin-2-yl)-N-((5-(trifluoromethyl)pyridin-2-yl)methyl)-1,3-dihydrofuro[3,4-c]quinoline-8-car bohydrazide]",7.8
13,"CN(c1ncccn1)N(Cc1ccc(C(F)(F)F)cn1)C(=O)c1ccc2nc(N)c3cnn(C)c3c2c1 [Example 11, 4-amino-N',1-dimethyl-N'-(pyrimidin-2-y 1)-N-((5-(trifluoromethyl)pyridin-2-yl)methyl)-1H-pyrazolo[4,3-c]quinoline-8-carb ohydrazide]",1
14,"Cc1cc2nc(N)c3cnn(C)c3c2cc1C(=O)N1CC(C)CN1c1ccc(C(F)(F)F)cn1 (stereo not shown) [Example 389, (4-amino-1,7-dimethyl-1H-pyrazolo[4,3-c]quinolin-8-yl)(4-methyl-2-(5-(trifluoromethyl)pyridin-2-yl)pyrazolidin-1-yl)met hanone]",6.3

# The remaining molecules from weak to strong by IC50, led by results:
row,IC50 [nM],SMILES
1,59,"Cc1cc2cc(C(=O)N3CCCN3c3ccc(C(F)(F)F)cn3)ccc2nc1N [Example 337, (2-amino-3-methylquinolin-6-yl)(2-(5-(trifluoromethyl)pyridin-2-yl)pyrazolidin-1-yl)methanone]"
2,17.2,"Cc1cc2cc(C(=O)N(Cc3ccc(C(F)(F)F)cn3)N(CC(F)(F)F)c3ncccn3)ccc2nc1N [Example 98, 2-amino-3-methyl-N'-(pyrimidin-2-yl)-N' -(2,2,2-trifluoroethyl)-N-((5-(trifluoromethyl)pyridin-2-yl)methyl)quinoline-6-carbohydrazide]"
3,9.7,"Cc1cc2cc(C(=O)N(Cc3ccc(C(F)(F)F)cn3)N(C)c3cccnn3)ccc2nc1N [Example 79, 2-amino-N',3-dimethyl-N'-(pyridazin-3-yl)-N-((5-(trifluoromethyl)pyridin-2-yl)methyl)quinoline-6-carbohydrazide]"
4,9.5,"Cc1cc2cc(C(=O)N(Cc3ccc(-c4nn[nH]n4)cn3)N(C)c3ncccn3)ccc2nc1N [Example 245, N-((5-(2H-tetrazol-5-yl)pyridin-2-yl)methyl)-2-amino-N',3-dimethyl-N'-(pyrimidin-2-y 1)quinoline-6-carbohydrazide]"
5,5,"COc1cc2nc(N)c3cnn(C)c3c2cc1C(=O)N1CCCN1c1ncccc1F [Example 498, (4-amino-7-methoxy-1-methyl-1H-pyraz olo[4,3-c]quinolin-8-yl)(2-(3-fluoropyridin-2-yl)pyrazolidin-1-yl)methanone]"
6,4.7,"COc1cc2cc(C(=O)N(Cc3ccc(C(F)(F)F)cn3)N(C)c3ncccn3)ccc2nc1N [Example 319, 2-amino-3-methoxy-N'-methyl-N'-(pyrimidin-2-yl)-N-((5-(trifluoromethyl)pyridin-2-yl)methyl)quinoline-6-carbohydrazide]"
7,3.9,"Cc1cc2cc(C(=O)N(Cc3ncccc3C(F)(F)F)N(C)c3ncccn3)ccc2nc1N [Example 41, 2-amino-N',3-dimethyl-N'-(pyrimidin-2-yl)-N-((3-(trifluoromethyl)pyridin-2-yl)methyl)quinoline-6-carbohydrazide]"
8,3.7,"Cc1cc2nc(N)c3cnn(C)c3c2cc1C(=O)N1CC(O)CN1c1ncccc1F (stereo not shown) [Example 356, (4-amino-1,7-dimethyl-1H-pyrazolo[4,3-c]quinolin-8-yl)(2-(3-fluoropyridin-2-yl)-4-hydroxypyrazolidin-1-yl)methanone]"
9,3.7,"COC1CN(C(=O)c2cc3c(cc2Cl)nc(N)c2cnn(C)c23)N(c2cc(F)ccc2F)C1 (stereo not shown) [Example 440, (4-amino-7-chloro-1-methyl-1H-pyrazolo [4,3-c]quinolin-8-yl)(2-(2,5-difluorophenyl)-4-methoxypyrazolidin-1-yl)methanone]"
10,3.6,"Cc1cc2cc(C(=O)N(Cc3ccc(C(F)(F)F)cn3)N(C)c3ncccc3C(C)C)ccc2nc1N [Example 136, 2-amino-N'-(3-isopropylpyridin-2-yl)-N', 3-dimethyl-N-((5-(trifluoromethyl)pyridin-2-yl)methyl)quinoline-6-carbohydrazide]"
11,2.9,"Cc1cc2cc(C(=O)N(Cc3ccc(C(F)(F)F)cn3)N(C)c3nccc4cnn(C)c34)ccc2nc1N [Example 275, 2-amino-N',3-dimethyl-N'-(1-methyl-1H-pyrazolo[3,4-c]pyridin-7-yl)-N-((5-(trifluoromethyl)pyridin-2-yl)methyl)quinoline-6-carbohydrazide]"
12,2.9,"Cc1cc2nc(N)c3cnn(C)c3c2cc1C(=O)N1CCCN1c1ccncc1 [Example 336, (4-amino-1,7-dimethyl-1H-pyrazolo[4,3-c]quinolin-8-yl)(2-(pyridin-4-yl)pyrazolidin-1-yl)methanone]"
13,2,"Cc1cc2cc(C(=O)N(Cc3ncc(Br)cn3)N(C)c3ncccc3F)ccc2nc1N [Example 89, 2-amino-N-((5-bromopyrimidin-2-yl)methyl)-N'-(3-fluoropyridin-2-yl)-N',3-dimet hylquinoline-6-carbohydrazide]"
14,1.6,"CN(c1ncccn1)N(Cc1ccc(C(F)(F)F)cn1)C(=O)c1ccc2nc(N)cc(C3CC3)c2c1 [Example 29, 2-amino-4-cyclopropyl-N'-methyl-N'-(pyrimidin-2-yl)-N-((5-(trifluoromethyl)pyridin-2-yl)methyl)quinoline-6-carbohydrazide]"

# From patent publication EP4745134A1 (Jiangsu Yahong Meditech Co., Ltd., priority 2023, dated 2025)
